Data on two compounds can be found in PMC6006479, “Minimization of dynamic effects in the evolution of dihydrofolate reductase” (Chemical Science, 2016).

The test concerns the target T1, MpDHFR (Moritella profunda, UniProt Q70YQ6).
T1 construct: gene dyrA; purified recombinant enzyme made in minimal medium; 'light' form with natural abundance isotopes; construct details only in supplement; monomeric
Briefly: steady-state kinetics. Conditions: light (natural abundance) enzyme, pH 7.0. In kind it is biochemical.

Each structure is given as a SMILES string.

T1 sequence (Q70YQ6 entry or part of it): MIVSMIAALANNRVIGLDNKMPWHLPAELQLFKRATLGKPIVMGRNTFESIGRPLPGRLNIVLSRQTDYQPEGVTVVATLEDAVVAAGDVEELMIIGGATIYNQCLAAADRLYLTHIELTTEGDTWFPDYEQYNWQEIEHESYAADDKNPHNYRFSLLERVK

For `Nc1nc2c(c(=O)[nH]1)N=C(CNc1ccc(C(=O)N[C@@H](CCC(=O)O)C(=O)O)cc1)CN2` [DHF], the Michaelis constant entry (co-substrate NADPH) was “The Michaelis constants for NADPH and DHF are essentially the same for all these enzymes”. Regarding `NC(=O)C1=CN([C@@H]2O[C@H](COP(=O)(O)OP(=O)(O)OC[C@H]3O[C@@H](n4cnc5c(N)ncnc54)[C@H](OP(=O)(O)O)[C@@H]3O)[C@@H](O)[C@H]2O)C=CC1` [NADPH], under “co-substrate dihydrofolate”, the Michaelis constant result was “The Michaelis constants for NADPH and DHF are essentially the same for all these enzymes”.
